According to patent US9408856B2, “Topical steroidal formulations” (Temple University—Of The Commonwealth System of Higher …, priority 2008, dated 2016):
“Also recorded” adds a separate entry of the source.

How the values were obtained:
[1] = PK study in human volunteers (phase I); type: in vivo; conditions: 12 human volunteers; calculated for 1200 mg oral dose from AUC0-24/mg at 800 mg or 1600 mg daily
Method: An oral single dose PK experiment in mice following administration of 200 mg/kg fluasterone was performed. The calculated AUC0-24 was 2,242 (ngXh/mL). A PK study was also performed in 12 human volunteers as part of a phase I fluasterone study. The volunteers received either 800 mg or 1600 mg fluasterone orally as a daily dose. The AUC0-24/mg dose was calculated.

[2] = tested on: fasting plasma triglyceride levels; test: Phase I/II trial in hypertriglyceridemic patients; type: in vivo, human; conditions: about 1200 mg oral
Method: The lowest effective oral dose of fluasterone which lowers fasting plasma triglycerides in diabetic mice is about 200 mg/kg, which translates into an oral human dose of about 1200 mg.

[3] = tested on: dexamethasone-induced thymic and splenic atrophy; test: Dexamethasone-induced thymic and splenic atrophy in mice; type: in vivo, CD-1 mice; conditions: for protection against DEX-induced thymic and splenic atrophy: CD-1 mice
Method: Administration of dehydroepiandrosterone (DHEA, 60 mg/kg, s.c.) for three days partially reverse thymic and splenic atrophy induced by a single injection of dexamethasone (1.6 mg/mouse). In this experiment, the efficacy of either 10 mg/kg or 20 mg/kg DHEA administered s.c. versus the effect of 10 mg/kg or 20 mg/kg fluasterone was investigated.
5% Cremophor (polyethoxylated castor oil; Sigma Chemicals)-95% saline vehicle was prepared using 95 mL of sterile 0.9% NaCl (filtered through sterile 0.22 micron filter) and 5 mL of Cremophor. The Cremophor was dissolved by swirling for approximately 5 minutes.
Dexamethasone solutions were prepared by dissolving dexamethasone (Sigma Chemicals) in absolute ethanol. For example, 71.9 mg of dexamethasone was dissolved in 2.9 mL of absolute ethanol. In order to prevent precipitation, the solution was kept on a hotplate between injections.
For the 10 mg/kg suspension, 25.7 mg of DHEA was weighed out, transferred to a glass scintillation vial, and 10.3 mL of the Cremophor-saline vehicle was added. The DHEA suspension was homogenized using a Tissumizer at 80% power for 30 sec. The Tissumizer was rinsed with 70% ethanol prior to homogenization. After the 10 mg/kg DHEA suspension was homogenized the probe was rinsed 2× with 50 mL of absolute ethanol, then with 50 mL of 70% ethanol, and then dried with sterile gauze. For the 20 mg/kg DHEA suspension, 50.9 mg DHEA was suspended in 10.2 mL of Cremophor-saline vehicle.
19.4 mg of fluasterone was weighed out and transferred to a glass scintillation vial. 7.8 mL of Cremophor-saline vehicle was added to the vial and the contents of the vial were homogenized with a Tissumizer as described previously. Prior to preparing the 20 mg/kg fluasterone, the probe was rinsed 2× with 50 mL of absolute ethanol and 1× with 50 mL of 70% ethanol. For the 20 mg/kg suspension, 47.0 mg was weighed out and transferred to a glass scintillation vial. 9.4 mL of Cremophor-saline vehicle was added to the vial and the contents of the vial were homogenized with a Tissumizer as described above.
Female CD-1 mice, 43-45 days old, were obtained from Charles River Laboratories. The mice were housed 5 per cage in plastic shoebox cages with ad libitum access to Purina chow 5015 and water in the Pharmacy CAF with 12 hr of alternating light and darkness.
Prior to the experiment the mice were weighed, separated into 6 groups containing 5 mice each and treated as follows:
Mice were treated s.c. with 0.1 mL of 5% Cremophor-95% saline for three days. On the third day, the mice were also treated s.c. with 1.6 mg of dexamethasone dissolved in 0.06 mL of absolute. ethanol.
Mice were treated s.c. with 0.25 mg of DHEA suspended in 0.1 mL of 5% Cremophor-95% saline for three days. On the third day, the mice were also treated s.c. with 1.6 mg of dexamethasone dissolved in 0.06 mL of absolute ethanol.
Mice were treated s.c. with 0.5 mg of DHEA suspended in 0.1 mL of 5% Cremophor-95% saline for three days. On the third day, the mice were also treated s.c. with 1.6 mg of dexamethasone dissolved in 0.06 mL of absolute ethanol.
Mice were treated s.c. with 0.25 mg of fluasterone suspended in 0.1 mL of 5% Cremophor-95% saline for three days. On the third day, the mice were also treated s.c. with 1.6 mg of dexamethasone dissolved in 0.06 mL of absolute ethanol.
Mice were treated s.c. with 0.5 mg of fluasterone suspended in 0.1 mL of 5% Cremophor-95% saline for three days. On the third day, the mice were also treated s.c. with 1.6 mg of dexamethasone dissolved in 0.06 mL of absolute ethanol.
All s.c. injections were made in the nape. All mice were lightly anesthetized while the s.c. injections were done.
Twenty-four hours after dexamethasone treatment, the mice were euthanized by an overdose of isoflurane. The spleen and thymus were removed, cleaned of any adventitia, rinsed, blotted on filter paper, and weighed. […]

[4] = Table 12, 10 mg/kg s.c. 3 days + dexamethasone 1.6 mg s.c. on day 3, 24 h after dexamethasone
[5] = Table 12, 20 mg/kg s.c. 3 days + dexamethasone 1.6 mg s.c. on day 3, 24 h after dexamethasone
[6] = Table 14, micronized steroid 10 mg/kg + dexamethasone
[7] = Table 14, micronized steroid 20 mg/kg + dexamethasone
[8] = Table 15, steroid 10 mg/kg in Cremophor-saline + dexamethasone
[9] = Table 16, steroid 5 mg/kg + dexamethasone
[10] = Table 16, steroid 10 mg/kg + dexamethasone

C[C@]12CCCCC1=CC[C@@H]1[C@@H]2CC[C@]2(C)C(=O)[C@H](F)C[C@@H]12 [Fluasterone, 16α-fluoro-5-androsten-17-one]
AUC0-24 [1]: 2,316 ngXh/mL | effect on fasting plasma triglyceride levels [2]: significantly lowered | protection against DEX-induced thymic and splenic atrophy ([3]; 5 mg/kg): significant protection | protection against DEX-induced thymic and splenic atrophy ([3]; 10 mg/kg): highly active; also recorded: as active as DHEA at 60 mg/kg | potency relative to DHEA in protecting against dexamethasone-induced thymic and splenic atrophy ([3]; Example 8, micronized): about 6 × | Body Weight [3, 4]: 24.3 ± 1.0 | Spleen wt [3, 4]: 77.5 ± 14.4 | Spleen wt/BW [3, 4]: 3.2 ± 0.5 | Thymus wt [3, 4]: 60.9 ± 5.2 | Thymus wt/BW [3, 4]: 2.5 ± 0.3 | Body Weight [3, 5]: 25.2 ± 0.6 | Spleen wt [3, 5]: 73.9 ± 13.8 | Spleen wt/BW [3, 5]: 2.9 ± 0.6 | Thymus wt [3, 5]: 60.8 ± 5.3 | Thymus wt/BW [3, 5]: 2.4 ± 0.2 | Body Weight [3, 6]: 26.7 ± 3.6 | Spleen wt [3, 6]: 83.0 ± 6.2 | Spleen wt/BW [3, 6]: 3.1 ± 0.3 | Thymus wt [3, 6]: 68.0 ± 11.5 | Thymus wt/BW [3, 6]: 2.5 ± 0.3 | Body Weight [3, 7]: 27.2 ± 3.1 | Spleen wt [3, 7]: 83.1 ± 7.9 | Spleen wt/BW [3, 7]: 3.1 ± 0.4 | Thymus wt [3, 7]: 66.3 ± 9.0 | Thymus wt/BW [3, 7]: 2.4 ± 0.2 | Body Weight [3, 8]: 24.8 ± 0.8 | Spleen wt [3, 8]: 80.0 ± 7.7 | Spleen wt/BW [3, 8]: 3.2 ± 0.4 | Thymus wt [3, 8]: 67.5 ± 3.9 | Thymus wt/BW [3, 8]: 2.7 ± 0.2 | Body Weight [3, 9]: 25.7 ± 1.7 | Spleen wt [3, 9]: 62.0 ± 10.2 | Spleen wt/BW [3, 9]: 2.4 ± 0.3 | Thymus wt [3, 9]: 50.8 ± 10.9 | Thymus wt/BW [3, 9]: 2.0 ± 0.3 | Body Weight [3, 10]: 25.2 ± 1.4 | Spleen wt [3, 10]: 89.4 ± 12.3 | Spleen wt/BW [3, 10]: 3.5 ± 0.4 | Thymus wt [3, 10]: 65.6 ± 4.4 | Thymus wt/BW [3, 10]: 2.6 ± 0.2 | Approximate Potency Compared to Fluasterone in Protecting Against DEX-induced Thymic and Splenic Involution ([3]; fluasterone = 1, mice): 1 | rank of activity among steroids tested against DEX-induced thymic and splenic involution ([3]; mice): most active steroid tested | rank of activity among steroids tested against DEX-induced thymic and splenic involution ([3]; mice, listed as fluasterone): most potent compound
